Tested on: human whole skin
Assay: Whole skin silver staining study, Franz type diffusion cell (Example 2)
Details: dressing hydrated with 200 μl saline, 24 hours, 32° C., FIG. 1
Description: Skin staining studies were carried out using an adaptation of a Franz type horizontal glass diffusion cell as described in Dugard et al, 1984. Whole human skin and wound tissue samples (1 cm^2 discs) were punched out using an Osborne arch punch and placed epidermal side uppermost on the receptor chamber. The donor chamber was then gently placed on top of the receptor chamber. The whole cell was clamped together and placed into a water bath maintained at 32° C.±1° C. The underlying whole skin was bathed in saline.
Individual silver-containing wound dressings (0.64 1 cm^2) were cut out and placed onto the centre of a piece of human whole skin. 200 μl of saline was placed into the donor chamber to hydrate each dressing to mimic a moderately exuding wound. Appoximately 5-10 mg of Flamazine cream was placed onto the skin and gently smoothed over the exposed skin surface by means of a small spatula. […] Each cell was left for 24 hours and images were taken using a Polaroid digital microscope camera.

Compound: O=[N+]([O-])[O-].[Ag+] [silver nitrate]
- silver staining of skin: significant silver staining
